Measured values reported in ChEMBL document CHEMBL5465560, “Selectivity Literature for EUbOPEN Chemogenomic Library” (2024).

Tests used:
[1] = target: TGF-beta receptor type-2 (Homo sapiens) (UniProt P37173); test: Selectivity interaction (KinomeScan (DiscoverX)) EUB0000607a TGFBR2; conditions: at 10 µM
[2] = target: T1, Mitogen-activated protein kinase kinase kinase 5 (Homo sapiens) (UniProt Q99683); test: Selectivity interaction (ActivX KiNativ screen (kinase selectivity in THP-1 cell lysates)) EUB0000639a MAP3K5; type: subcellular; conditions: lysate, at 0.2 µM
T1 sequence (whole entry): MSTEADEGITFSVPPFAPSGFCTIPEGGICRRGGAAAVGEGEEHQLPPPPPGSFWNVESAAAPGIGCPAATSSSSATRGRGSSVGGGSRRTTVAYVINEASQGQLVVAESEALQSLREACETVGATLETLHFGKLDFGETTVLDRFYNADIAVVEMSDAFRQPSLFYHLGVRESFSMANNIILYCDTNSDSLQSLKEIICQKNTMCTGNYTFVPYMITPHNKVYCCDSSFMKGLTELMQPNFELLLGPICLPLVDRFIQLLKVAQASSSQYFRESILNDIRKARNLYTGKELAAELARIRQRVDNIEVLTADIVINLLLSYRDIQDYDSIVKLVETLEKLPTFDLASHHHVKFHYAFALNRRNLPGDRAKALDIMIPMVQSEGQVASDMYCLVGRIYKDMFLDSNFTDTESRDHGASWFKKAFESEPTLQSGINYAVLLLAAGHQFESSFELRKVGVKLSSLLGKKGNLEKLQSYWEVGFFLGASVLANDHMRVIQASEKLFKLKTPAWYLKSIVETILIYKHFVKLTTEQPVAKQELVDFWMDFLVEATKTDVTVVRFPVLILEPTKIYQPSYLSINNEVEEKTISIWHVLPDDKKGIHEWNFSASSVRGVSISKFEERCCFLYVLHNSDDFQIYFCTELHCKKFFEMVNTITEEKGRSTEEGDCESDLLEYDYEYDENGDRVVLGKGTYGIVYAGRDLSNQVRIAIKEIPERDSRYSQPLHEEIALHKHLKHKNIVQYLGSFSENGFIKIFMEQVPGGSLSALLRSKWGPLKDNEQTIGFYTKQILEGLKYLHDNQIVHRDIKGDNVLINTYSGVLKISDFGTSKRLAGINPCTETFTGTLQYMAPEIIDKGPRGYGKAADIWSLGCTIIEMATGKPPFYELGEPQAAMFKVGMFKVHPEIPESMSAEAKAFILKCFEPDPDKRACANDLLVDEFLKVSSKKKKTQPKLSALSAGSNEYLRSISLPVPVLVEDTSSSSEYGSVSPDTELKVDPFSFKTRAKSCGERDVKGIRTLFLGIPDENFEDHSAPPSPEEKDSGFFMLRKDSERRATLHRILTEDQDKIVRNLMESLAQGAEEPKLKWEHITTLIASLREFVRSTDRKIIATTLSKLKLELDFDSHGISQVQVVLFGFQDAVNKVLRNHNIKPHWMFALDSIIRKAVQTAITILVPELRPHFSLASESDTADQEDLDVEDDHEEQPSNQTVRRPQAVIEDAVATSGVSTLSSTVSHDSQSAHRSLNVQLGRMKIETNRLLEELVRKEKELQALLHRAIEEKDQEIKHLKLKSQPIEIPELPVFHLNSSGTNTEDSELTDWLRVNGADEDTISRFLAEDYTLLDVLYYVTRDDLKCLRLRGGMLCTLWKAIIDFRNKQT

[3] = test system: T2, Discoidin domain-containing receptor 2 (Homo sapiens), Q16832 [N456S]; test: Selectivity interaction (ProQinase) EUB0000171b DDR2
T2 sequence (whole entry): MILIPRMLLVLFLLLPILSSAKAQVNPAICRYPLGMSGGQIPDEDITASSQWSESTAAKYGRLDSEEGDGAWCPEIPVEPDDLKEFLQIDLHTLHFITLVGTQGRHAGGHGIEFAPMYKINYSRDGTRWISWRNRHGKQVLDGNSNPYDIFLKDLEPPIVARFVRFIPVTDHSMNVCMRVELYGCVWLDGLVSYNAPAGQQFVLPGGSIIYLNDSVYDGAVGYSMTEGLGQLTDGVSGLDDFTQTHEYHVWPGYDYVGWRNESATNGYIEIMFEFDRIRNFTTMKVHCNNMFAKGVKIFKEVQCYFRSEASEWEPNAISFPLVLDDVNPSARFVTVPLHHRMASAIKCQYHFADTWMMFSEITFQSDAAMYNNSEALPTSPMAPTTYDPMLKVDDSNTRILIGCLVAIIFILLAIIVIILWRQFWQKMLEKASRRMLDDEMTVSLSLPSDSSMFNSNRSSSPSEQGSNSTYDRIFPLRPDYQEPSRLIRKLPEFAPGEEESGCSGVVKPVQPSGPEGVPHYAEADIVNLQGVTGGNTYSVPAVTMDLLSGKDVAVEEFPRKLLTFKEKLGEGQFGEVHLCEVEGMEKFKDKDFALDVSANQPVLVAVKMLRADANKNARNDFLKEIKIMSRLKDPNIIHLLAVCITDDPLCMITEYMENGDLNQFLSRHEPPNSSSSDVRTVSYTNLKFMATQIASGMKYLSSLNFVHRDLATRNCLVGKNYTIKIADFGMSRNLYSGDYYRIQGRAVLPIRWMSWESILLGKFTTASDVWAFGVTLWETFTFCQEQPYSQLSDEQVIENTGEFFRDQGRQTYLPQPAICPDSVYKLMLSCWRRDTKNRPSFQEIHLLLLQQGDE

[4] = target: Homeodomain-interacting protein kinase 2 (Homo sapiens, UniProt Q9H2X6); test: Selectivity interaction (KinomeScan (DiscoverX)) EUB0000229b HIPK2; conditions: at 10 µM
[5] = target: Protein kinase C theta type (Homo sapiens, UniProt Q04759); conditions: at 10 µM
Protein kinase C theta type, sequence (Q04759 whole entry, looked up): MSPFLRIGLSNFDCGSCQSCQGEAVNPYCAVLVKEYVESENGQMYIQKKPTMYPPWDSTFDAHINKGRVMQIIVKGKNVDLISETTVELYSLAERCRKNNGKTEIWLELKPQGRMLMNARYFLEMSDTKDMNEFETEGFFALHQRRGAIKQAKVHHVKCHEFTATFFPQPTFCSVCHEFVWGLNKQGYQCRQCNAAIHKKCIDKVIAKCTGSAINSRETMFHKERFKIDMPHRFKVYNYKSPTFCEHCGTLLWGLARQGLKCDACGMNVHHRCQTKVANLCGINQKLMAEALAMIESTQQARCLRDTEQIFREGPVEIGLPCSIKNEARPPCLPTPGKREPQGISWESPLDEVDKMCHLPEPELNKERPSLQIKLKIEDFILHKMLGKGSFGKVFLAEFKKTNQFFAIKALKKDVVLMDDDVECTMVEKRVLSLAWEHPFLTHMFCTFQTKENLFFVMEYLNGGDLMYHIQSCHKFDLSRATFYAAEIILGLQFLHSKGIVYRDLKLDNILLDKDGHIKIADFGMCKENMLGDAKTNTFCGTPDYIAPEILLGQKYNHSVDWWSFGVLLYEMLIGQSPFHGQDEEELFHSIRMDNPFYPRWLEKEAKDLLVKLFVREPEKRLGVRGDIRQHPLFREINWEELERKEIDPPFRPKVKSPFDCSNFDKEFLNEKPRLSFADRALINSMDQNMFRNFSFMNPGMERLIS

Homeodomain-interacting protein kinase 2, sequence (Q9H2X6 whole entry, looked up): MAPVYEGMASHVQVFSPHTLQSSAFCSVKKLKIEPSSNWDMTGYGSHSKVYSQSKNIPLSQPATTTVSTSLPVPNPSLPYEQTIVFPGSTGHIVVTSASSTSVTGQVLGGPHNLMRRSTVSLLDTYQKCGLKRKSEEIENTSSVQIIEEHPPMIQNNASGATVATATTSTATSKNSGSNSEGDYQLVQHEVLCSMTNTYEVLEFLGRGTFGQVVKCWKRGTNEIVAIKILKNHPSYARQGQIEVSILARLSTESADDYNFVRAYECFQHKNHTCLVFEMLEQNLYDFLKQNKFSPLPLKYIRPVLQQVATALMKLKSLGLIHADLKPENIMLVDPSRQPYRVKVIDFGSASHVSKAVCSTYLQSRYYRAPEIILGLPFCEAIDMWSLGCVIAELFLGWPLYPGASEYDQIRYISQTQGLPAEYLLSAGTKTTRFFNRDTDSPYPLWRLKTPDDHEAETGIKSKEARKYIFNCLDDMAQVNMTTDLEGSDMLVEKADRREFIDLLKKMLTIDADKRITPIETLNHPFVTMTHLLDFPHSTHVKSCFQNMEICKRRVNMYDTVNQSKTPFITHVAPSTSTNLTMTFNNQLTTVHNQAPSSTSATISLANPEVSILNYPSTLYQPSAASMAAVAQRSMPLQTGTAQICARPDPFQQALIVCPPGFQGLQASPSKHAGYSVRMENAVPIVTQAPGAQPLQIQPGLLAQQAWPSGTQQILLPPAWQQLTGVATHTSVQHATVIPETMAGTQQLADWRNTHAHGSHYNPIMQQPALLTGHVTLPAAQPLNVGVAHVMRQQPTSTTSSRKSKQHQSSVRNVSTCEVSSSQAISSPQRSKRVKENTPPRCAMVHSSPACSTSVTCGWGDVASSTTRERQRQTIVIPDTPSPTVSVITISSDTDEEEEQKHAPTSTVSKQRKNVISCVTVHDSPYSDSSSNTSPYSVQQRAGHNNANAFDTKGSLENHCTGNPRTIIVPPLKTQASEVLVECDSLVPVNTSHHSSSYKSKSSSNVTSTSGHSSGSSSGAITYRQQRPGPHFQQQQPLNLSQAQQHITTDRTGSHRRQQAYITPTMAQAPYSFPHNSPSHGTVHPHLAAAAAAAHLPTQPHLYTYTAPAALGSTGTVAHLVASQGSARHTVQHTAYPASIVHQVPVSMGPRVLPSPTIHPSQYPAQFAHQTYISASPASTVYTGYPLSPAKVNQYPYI
TGF-beta receptor type-2 (Homo sapiens), sequence (P37173 whole entry): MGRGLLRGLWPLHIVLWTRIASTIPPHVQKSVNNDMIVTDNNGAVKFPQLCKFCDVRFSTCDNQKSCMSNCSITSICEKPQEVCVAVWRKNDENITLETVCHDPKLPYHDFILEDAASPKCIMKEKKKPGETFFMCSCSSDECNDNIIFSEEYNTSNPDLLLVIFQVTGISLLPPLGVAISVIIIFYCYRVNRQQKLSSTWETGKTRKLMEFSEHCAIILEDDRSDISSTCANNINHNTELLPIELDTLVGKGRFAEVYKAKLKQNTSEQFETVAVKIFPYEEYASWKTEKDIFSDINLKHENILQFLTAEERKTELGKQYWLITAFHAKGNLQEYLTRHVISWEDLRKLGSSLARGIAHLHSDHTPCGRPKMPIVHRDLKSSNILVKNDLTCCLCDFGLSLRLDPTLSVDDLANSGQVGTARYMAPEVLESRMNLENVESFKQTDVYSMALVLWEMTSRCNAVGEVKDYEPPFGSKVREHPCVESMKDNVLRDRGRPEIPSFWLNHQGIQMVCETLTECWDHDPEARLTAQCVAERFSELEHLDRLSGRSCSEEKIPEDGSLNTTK

CNC(=O)Nc1ccc(-c2nc(N3CC4CCC(C3)O4)c3cnn(C4CCC5(CC4)OCCO5)c3n2)cc1
% of control [1]: 100%

CC[C@@H]1[C@H](F)C(=O)N[C@@H]1COc1nccc2cc(C(N)=O)c(OC)cc12 [ZIMLOVISERTIB]
% of inhibition [2]: -11.2%

C=CC(=O)Nc1cccc(C(=O)Nc2ccc(Nc3cc(-c4[nH]c(SC)nc4C)ccn3)cc2)c1
% of control ([3]; at 1 µM): 88% | % of control ([3]; at 5 µM): 67%

COc1cc(N(C)c2ccnc3ccc(C(F)(F)F)cc23)cc(OC)c1OC
% binding [4]: 100%

Cc1cc([C@@H](C)Nc2ccccc2C(=O)O)c2nc(N3CCOCC3)cc(=O)n2c1 [AZD-6482]
% of control [5]: 97%
